The target of the experiment is CASV L-Cterm (CAS virus, UniProt J7HBG8). The class given is binding.

Consider `C[n+]1cn([C@@H]2O[C@H](COP(=O)(O)OP(=O)(O)OP(=O)(O)O)[C@@H](O)[C@H]2O)c2nc(N)[nH]c(=O)c21` [m^7GTP], for which the “X-ray crystallography, crystal soaking” value is on record as “the cap-analogue was bound to F1839 at the periphery of the β-sheet”.

These data come from article PMC5444859 (PLoS Pathogens, 2017).
